Experiments:
SMYD3 (apo, native) = biological target: T1, SMYD3 (apo, native) (Homo sapiens, UniProt Q9H7B4); assay: GCI biosensor kinetic screening, apo SMYD3 surface; type: binding; conditions: control SAH at 25 μM, multiple injection design
T1 construct: Full length recombinant SMYD3 was produced as previously reported; made in house; host or cells: E. coli BL21(DE3), in some cases Rosetta 2
T1 sequence (Q9H7B4 1-428): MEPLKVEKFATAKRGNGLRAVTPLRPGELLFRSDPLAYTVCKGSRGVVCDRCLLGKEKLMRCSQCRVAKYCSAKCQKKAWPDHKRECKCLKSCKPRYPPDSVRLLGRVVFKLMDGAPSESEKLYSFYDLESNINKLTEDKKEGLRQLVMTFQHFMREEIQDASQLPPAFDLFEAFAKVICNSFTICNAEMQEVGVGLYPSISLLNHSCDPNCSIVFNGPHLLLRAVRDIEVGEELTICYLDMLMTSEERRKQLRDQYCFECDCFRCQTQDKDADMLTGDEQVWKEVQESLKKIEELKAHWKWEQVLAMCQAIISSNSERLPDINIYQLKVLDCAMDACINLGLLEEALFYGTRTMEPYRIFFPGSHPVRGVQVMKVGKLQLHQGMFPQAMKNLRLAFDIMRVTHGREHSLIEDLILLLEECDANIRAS
Source text: (§1) A multiplexed screening assay was set up with three different SMYD3 surfaces and a blank reference surface in flow channels 1–4 (FC1–FC4) (Fig. 2a), as described previously.[5] The apo SMYD3 surface detected fragments interacting anywhere on SMYD3, while a SMYD3 surface blocked by active site-specific tight-binding inhibitor EPZ031686 detected compounds binding elsewhere. The denatured surface served as a reference, detecting fragments binding to unfolded proteins, also potentially present to a significant degree in the other two surfaces.
After preparing the sensor surface and immobilising SMYD3, the functionality of the surface was assessed via analysis of interactions with the co-factor product S-adenosyl-homocysteine (SAH). It was used as a control in all experiments, confirming that sensor surfaces were intact. This was done using the novel multiple injection-based experimental design (Fig. 1) at 25 μM, i.e. in a weak binder mode (Fig. 2b).
(§2) The library was screened using the approach described in Fig. 1, i.e. injection of fragments at 250 μM for increasing durations of time in a single cycle, using a flow rate of 100 μL min^−1, data acquisition set to 40 Hz and with an association time of 5 s and dissociation of 20 s. Each fragment was addressed to all four channels and interactions with the native and blocked surfaces compared. The experimental conditions were chosen to ensure that the assay could reliably characterize the fast and transient interactions expected from typical fragments.
(§3) The kinetic screening of 1056 compounds was successfully completed in 72 hours. […] Hits were identified with full kinetic information using dissociation phases.
(§4) All interaction kinetic experiments were conducted with a GCI–flow-based biosensor (WAVEdelta, Creoptix AG/Malvern Panalytical) and PCH WAVEchip (Creoptix AG/Malvern Panalytical) sensor chips. The sensor chips were conditioned using injections of borate buffer (10 mM sodium tetraborate pH 8.5, 1 M NaCl). The running buffer composition, if not otherwise stated, was TBS buffer (50 mM Tris, 150 mM NaCl, 0.5 mM TCEP, 0.05% Tween 20, 1% DMSO, pH 8). SMYD3 was diluted to the desired concentration in 10 mM bis-Tris (pH 7.0) and amine coupled to the sensor surface of the PCH sensor chip. The sensor chip was functionalized at 25 °C by immobilising SMYD3 with EDC and NHS (Xantec) using an injection time of 420 s and a flow rate of 10 μL min^−1. The immobilisation levels ranged from 5000 pg mm^−2 to 18 500 pg mm^−2 surface mass to enable analysis of fragments spanning a broad range of affinities. After immobilization, the surface was deactivated with a running buffer containing 50 mM Tris for 420 s. The GCI data referencing and analysis were performed using WAVEcontrol V4.5 (Creoptix AG).
(§5) Kinetic measurements with controls and fragments were performed at 15 °C. Analysis of controls and follow up of hits was done using the multi cycle kinetic (MCK) injection of a concentration series for the same time, with a two-fold serial dilution starting at 250 μM for each compound. Solvent correction was performed ranging from 0.5–1.8% DMSO. Blank samples of the running buffer, 1× TBS (50 mM Tris, 150 mM NaCl, 0.5 mM TCEP, 0.05% Tween 20, 1% DMSO, pH 8), were injected during the measurements every fifth cycle. The experimental design illustrated in Fig. 1 was used for the screening against all four surfaces. The sensorgrams were adjusted to account for solvent correction and blank subtraction. Kinetic fitting was performed with the Direct Kinetics engine of WAVEcontrol software V4.5 (Creoptix AG) with a suitable fitting model.

SMYD3 [1] = biological target: T2, SMYD3 (Homo sapiens, UniProt Q9H7B4); parameters: method as in PMID 31389685; conditions: previously obtained, SPR-based biosensor assay, cited from earlier work
T2 construct: Full length recombinant SMYD3 was produced as previously reported; made in house; host or cells: E. coli BL21(DE3), in some cases Rosetta 2
T2 sequence (Q9H7B4 1-428): T1 sequence (Q9H7B4 1-428)

SMYD3 [2] = biological target: T2, SMYD3; assay: GCI biosensor multi cycle kinetic confirmation of hits; type: binding; conditions: two-fold serial dilution starting at 250 μM, 15 °C, global fit 1:1 model
Experimental: Selected screening hits were also re-tested by conventional multi cycle kinetic analysis in order to confirm the interactions (some compounds were no longer available). Two variants of the GCI biosensor assay were set up, using different immobilisation levels, to allow the confirmation of hits over a broad range of affinities. […] The kinetics varied for the selected hits (ESI, ^† Fig. S2). All hits were not confirmed (ESI, ^† Fig. S1b).
as §4, §5
FL06268 Superstoichiometric and
Figure 1. Examples of sensorgrams from multicycle kinetic experiments with initial fragment hits and SMYD3. A)
Fragments for which crystal structures of the complex with SMYD3 were obtained. A global fit of the sensorgrams
crystal structures were not obtained. […]

SMYD3 [3] = biological target: T2, SMYD3; assay: X-ray crystallography of SMYD3-fragment complexes (co-crystallization and soaking); parameters: key to XRC: success or failure of crystallization in complex with SMYD3: The success (+) or failure (−) of crystallization in complex with SMYD3; The success (+) or failure (−) of crystallization in complex with SMYD3; conditions: 5 mM fragment co-crystallization or soaking
Source text: To identify binding sites and binding modes, the fragment hits (Table 1) were used in both co-crystallization and soaking experiments to obtain SMYD3-fragment co-crystals for X-ray crystallographic analyses. Diffraction data of 1.6–1.9 Å maximum resolution were obtained for four fragments (Fig. 5). For data collection and refinement statistics, see ESI, ^† Table S1.
Four new sites were thus identified.
Polder (F0–Fc) maps (Fig. 5, right) were generated to establish whether the observed electron density features were more likely to represent background noise or to belong to bound fragments. These omit maps are generated upon exclusion of the ligand and surrounding solvent from the model, which aids in visualizing weak densities. […] For fragments FL01507, FL08580 and FL08619, a comparison of the maps obtained after refinement with a bound fragment with maps obtained upon their replacement with either glycerol or acetate, which were present in the crystallization or cryo-protectant solutions, respectively, was required.
8 mg mL^−1 of SMYD3 in storage buffer (TBS buffer containing 2 mM DTT) was pre-incubated for 4–8 hours with 5 mM of a respective fragment hit compound and 10% (v/v) DMSO. Subsequently, 1 μL of this solution was mixed with an equal volume of reservoir solution (100 mM Tris, 100 mM magnesium acetate, 15–17% PEG3350, pH 8.25–8.75) to create the drops for co-crystallization by hanging drop vapour diffusion performed at 20 °C. Needle-like co-crystals nucleated within 12 h of equilibration against the reservoir. In addition, crystals of SMYD3 obtained in ligand-free crystallization setups were soaked with fragment solution prior to freezing. All crystals were cryo-protected via brief immersion in reservoir solution supplemented with 10% (v/v) glycerol.
Diffraction data were collected at beamline ID23-1 of the European Synchrotron Radiation Facility (ESRF, Grenoble, France). Data were indexed, auto-processed, scaled and merged on-site using the implemented data processing routines and software. Fragment-associated electron density features were identified upon data analysis with the Pipedream system (version 1.4.0, Global Phasing Ltd, Cambridge, United Kingdom), which includes data processing with autoPROC,[14] molecular replacement with Phaser,[15] structure refinement with BUSTER version 2.10.4 (Global Phasing Ltd, Cambridge, United Kingdom), automated ligand fitting with Rhofit (Global Phasing Ltd, Cambridge, United Kingdom) and BUSTER post-refinement.[16] Refinement was done with Phenix,[17] and model building with Coot.[18] (F0–Fc) difference density maps for models, from which ligand atoms and surrounding water molecules were removed, were generated using Phenix.

[4] = biological target: T3, SMYD3 in complex with active site-specific tight-binding inhibitor EPZ031686 (Homo sapiens, UniProt Q9H7B4); assay: GCI biosensor kinetic screening, active site blocked SMYD3 surface
T3 construct: Full length recombinant SMYD3 was produced as previously reported; made in house; host or cells: E. coli BL21(DE3), in some cases Rosetta 2
T3 sequence (Q9H7B4 1-428): T1 sequence (Q9H7B4 1-428)
Source text: as §1, §2, §3, §4, §5

## Nc1ncnc2c1ncn2[C@@H]1O[C@H](CSCC[C@H](N)C(=O)O)[C@@H](O)[C@H]1O [SAH, S-adenosyl-homocysteine]
SMYD3 (apo, native)
  ka: 304000 to 3.52e+06 M⁻¹ s⁻¹
  kd: 0.748 to 4.92 s⁻¹
SMYD3 [1]
  ka: (2.7 ± 0.1) × 10^6 M^-1 s^-1
  kd: 1.6 ± 0.9 s⁻¹
SMYD3 [1]; read-out: derived KD
  Kd: 611 ± 2 nM

## O=C(O)C(=O)c1ccccc1 [FL08619]
SMYD3 [2]
  Outcome of multicycle kinetic experiment (sensorgram assessment): Far from saturation
SMYD3 [3]
  XRC: success or failure of crystallization in complex with SMYD3: (+)
[4]; LE = −RT ln(KD)/n, blocked SMYD3 surface
  LE (ligand efficiency): 0.55 (kcal^-1 mol^-1)/HA
[4]; initial kinetic screening, fragment 250 μM, 15 °C, SMYD3 blocked by EPZ031686
  Kd: 38 µM
[4]; initial kinetic screening, fragment 250 μM, 15 °C, SMYD3 blocked by EPZ031686, 1:1 model
  kd: 1.06 s⁻¹
[4]; initial kinetic screening, fragment 250 μM, 15 °C, SMYD3 blocked by EPZ031686, 1:1 model, read-out: ka
  kon at 250 µM: 27300 M⁻¹ s⁻¹
